Assay: Tissue distribution by quantitative whole-body autoradiography (QWBA)
Assay type: in vivo, male Sprague Dawley and Long-Evans rats
Details: for Concentration of radioactivity: SD rat, 15 mg/kg IV
Procedure: The study utilized 4 groups of male SD rats (albino), and 3 groups of male LE rats (pigmented); a total of 39 rats. All animals were obtained from Hilltop Lab Animals, Inc. (Scottdale, Pa.). […] Rats in Group 5 were administered a single 2-h IV infusion of [^14C]brincidofovir at a target dose of 2 mg/kg. […] Three dosing formulations (one for high dose IV, one for low dose IV, and one for PO dose) were prepared at QPS on the day of dosing. The IV formulation for Groups 1, 2, 3, and 4 contained a vehicle of 10 mM sodium phosphate buffer in 5% dextrose solution at pH 8.0(±0.1).
Each animal, at their respective termination time points, was euthanized for QWBA analysis immediately after blood collection. One rat per time point per Group was euthanized as listed below.
The blood samples were maintained on wet ice (approximately 4° C.) and then centrifuged to obtain plasma within 1 h of the blood collection time. Centrifuge settings were recorded in the study notebook. Duplicate aliquots of plasma (0.050 mL) were analyzed for radioactivity using direct counting by LSC, and residual plasma was stored at approximately −70° C. and was saved for possible future analysis under a separate study protocol. Residual red blood cells were discarded as radioactive waste.
The pinna, distal limbs, hair, and tail were removed from each frozen carcass and each frozen carcass was embedded in an aqueous suspension of approximately 2% (w/v) carboxymethylcellulose and frozen into a block. The blocks were stored at approximately −20° C. prior to sectioning. Each blocked carcass was mounted on the object stage of a cryomicrotome (Leica CM3600 Cryomacrocut, Nussloch, Germany and Vibratome 9800, St. Louis, Mo.) maintained at approximately −20° C. and internal standards (3), which were plasma fortified with [^14C]-glucose at one concentration (approximately 0.05 μCi/mL), were placed into the frozen blocks, prior to sectioning, and were used for section thickness quality control. A number of whole-body sections (approximately 40 μm thick) were taken in the sagittal plane at various levels of interest using a whole-body cryomicrotome set at −20° C. Sagittal sections (20-50 μm thick) of frozen carcasses were exposed to phosphor imaging plates. Regions of images in tissues were converted to concentrations using standards. All of the major tissues, organs, and biological fluids were represented.
Tissue concentration data was determined for the following tissues and/or contents: adipose (brown and white), adrenal gland, bile (in duct), blood (cardiac), bone, bone marrow, brain (cerebrum, cerebellum, medulla), cecum (and contents), large intestine (and contents), epididymis, esophagus, eye (uvea and lens), Harderian gland, heart, kidney (cortex and medulla), liver, lung, lymph node, pancreas, pituitary gland, prostate gland, salivary gland, seminal vesicles, skeletal muscle, skin (pigmented and non-pigmented), small intestine (and contents), stomach (gastric mucosa and contents), spleen, spinal cord, testis, thymus, thyroid, and urinary bladder (and contents).
The imaging plate and sections were placed in light-tight exposure cassettes, in a copper-lined lead safe, for a 4-day exposure at room temperature. […] Quantification was performed by image densitometry using MCD image analysis software (v. 7.0, Interfocus Imaging Ltd) and a standard curve constructed from the integrated response [i.e., Molecular Dynamics Counts per square millimeter (MDC/mm^2)] and the nominal concentrations of the ^14C-calibration standards. The concentrations of radioactivity were expressed as the μg equivalents of [^14C]brincidofovir per gram sample (μg equiv/g). A lower limit of quantification (LLOQ) was applied to the data (See section 6.7.4).
Tissue concentrations that fell below the LLOQ were identified as being below the quantification limit (BQL). Tissue areas that were not visualized on autoradiographic images were identified as no sample (NS) and reported as BQL.

CCCCCCCCCCCCCCCCOCCCOP(=O)(O)CO[C@H](CO)Cn1ccc(N)nc1=O [[^14C]brincidofovir]
Concentration at Tmax: kidney medulla (Group 6 SD, 15 mg/kg PO): 7.9 μg equiv/g | Concentration at Tmax: liver (Group 6 SD, 15 mg/kg PO): 20.6 μg equiv/g | Concentration at Tmax: small intestine (Group 6 SD, 15 mg/kg PO): 236.3 μg equiv/g | Concentration at Tmax: stomach (Group 6 SD, 15 mg/kg PO): 11.2 μg equiv/g | Concentration at Tmax: urinary bladder (Group 6 SD, 15 mg/kg PO): 17.3 μg equiv/g | Residual concentration in small intestine at 168 h (Group 6 SD, 15 mg/kg PO): 2.7 μg equiv/g | Highest observed concentration in blood (Group 6 SD, 15 mg/kg PO, 2 h): 0.200 μg equiv/g | Urinary bladder contents (Group 7, 8 h): 110.9 μg equiv/g | Concentration of radioactivity, Eye (lens) (Group 7 LE pigmented rats, oral 15 mg/kg, c2-c11 = 0.5, 1, 2, 4, 8, 24, 72, 96, 168, 840 h, LLOQ 0.034): BQL | Concentration at Tmax: cecum (Group 7 LE, 15 mg/kg PO): 7.6 μg equiv/g | Concentration at Tmax: kidney cortex (Group 7 LE, 15 mg/kg PO): 17.8 μg equiv/g | Concentration at Tmax: kidney medulla (Group 7 LE, 15 mg/kg PO): 9.1 μg equiv/g | Concentration at Tmax: large intestine (Group 7 LE, 15 mg/kg PO): 3.3 μg equiv/g | Concentration at Tmax: liver (Group 7 LE, 15 mg/kg PO): 36.1 μg equiv/g | Concentration at Tmax: small intestine (Group 7 LE, 15 mg/kg PO): 458.5 μg equiv/g | Concentration at Tmax: stomach (Group 7 LE, 15 mg/kg PO): 12.0 μg equiv/g | Concentration at Tmax: urinary bladder (Group 7 LE, 15 mg/kg PO): 3.7 μg equiv/g | Highest observed concentration in blood (Group 7 LE, 15 mg/kg PO, 8 h): 1.1 μg equiv/g | Concentration of radioactivity (Harderian Gland, 2 h): 2.081 μg equiv./g | Concentration of radioactivity (Harderian Gland, 24 h): 1.278 μg equiv./g | Concentration of radioactivity (Harderian Gland, 168 h): 0.954 μg equiv./g | Concentration of radioactivity (Heart, 2 h): 2.540 μg equiv./g | Concentration of radioactivity (Heart, 24 h): 0.408 μg equiv./g | Concentration of radioactivity (Heart, 168 h): 0.057 μg equiv./g | Radioactivity in brain and spinal cord relative to plasma concentration (IV administration): ~20% | Tissue to plasma ratios (T/P) in liver, kidney and small intestine (IV and oral): > 30 | Small intestine tissue to plasma ratio (IV infusion, 15 mg/kg): 32 | Concentration of radioactivity (Kidney Cortex, 2 h): 106.513 μg equiv./g | Concentration of radioactivity (Kidney Cortex, 24 h): 32.109 μg equiv./g | Concentration of radioactivity (Kidney Cortex, 168 h): 0.474 μg equiv./g | Concentration of radioactivity (Kidney Medulla, 2 h): 33.444 μg equiv./g | Concentration of radioactivity (Kidney Medulla, 24 h): 4.271 μg equiv./g | Concentration of radioactivity (Kidney Medulla, 168 h): 0.186 μg equiv./g | Concentration of radioactivity (Liver, 2 h): 229.371 μg equiv./g | Concentration of radioactivity (Liver, 24 h): 13.907 μg equiv./g | Concentration of radioactivity (Liver, 168 h): 0.453 μg equiv./g | Concentration of radioactivity (Lung, 2 h): 5.675 μg equiv./g | Concentration of radioactivity (Lung, 24 h): 1.128 μg equiv./g | Concentration of radioactivity (Lung, 168 h): 0.296 μg equiv./g | Concentration of radioactivity (Lymph Node, 2 h): 4.055 μg equiv./g | Concentration of radioactivity (Lymph Node, 24 h): 1.004 μg equiv./g | Concentration of radioactivity (Lymph Node, 168 h): 0.247 μg equiv./g | Concentration of radioactivity (Pancreas, 2 h): 1.974 μg equiv./g | Concentration of radioactivity (Pancreas, 24 h): 0.557 μg equiv./g | Concentration of radioactivity (Pancreas, 168 h): BQL (BQL = Value is below the LLOQ) | Concentration of radioactivity (Pituitary Gland, 2 h): 2.793 μg equiv./g | Concentration of radioactivity (Pituitary Gland, 24 h): 1.021 μg equiv./g | Concentration of radioactivity (Pituitary Gland, 168 h): 0.257 μg equiv./g | Concentration of radioactivity (Prostate Gland, 2 h): 2.033 μg equiv./g | Concentration of radioactivity (Prostate Gland, 24 h): 0.254 μg equiv./g | Concentration of radioactivity (Prostate Gland, 168 h): 0.051 μg equiv./g | Concentration of radioactivity (Salivary Gland, 2 h): 2.049 μg equiv./g | Concentration of radioactivity (Salivary Gland, 24 h): 0.395 μg equiv./g | Concentration of radioactivity (Salivary Gland, 168 h): 0.047 μg equiv./g | Concentration of radioactivity (Seminal Vesicles, 2 h): 1.809 μg equiv./g | Concentration of radioactivity (Seminal Vesicles, 24 h): 1.636 μg equiv./g | Concentration of radioactivity (Seminal Vesicles, 168 h): 0.817 μg equiv./g | Concentration of radioactivity (Skeletal Muscle, 2 h): 0.868 μg equiv./g | Concentration of radioactivity (Skeletal Muscle, 24 h): 0.099 μg equiv./g | Concentration of radioactivity (Skeletal Muscle, 168 h): BQL (BQL = Value is below the LLOQ) | Concentration of radioactivity (Skin (non-pigmented), 2 h): 2.277 μg equiv./g | Concentration of radioactivity (Skin (non-pigmented), 24 h): 0.602 μg equiv./g | Concentration of radioactivity (Skin (non-pigmented), 168 h): 0.121 μg equiv./g | Concentration of radioactivity (Spinal Cord, 2 h): 0.437 μg equiv./g | Concentration of radioactivity (Spinal Cord, 24 h): 0.079 μg equiv./g | Concentration of radioactivity (Spinal Cord, 168 h): BQL (BQL = Value is below the LLOQ) | Concentration of radioactivity (Spleen, 2 h): 4.536 μg equiv./g | Concentration of radioactivity (Spleen, 24 h): 2.244 μg equiv./g | Concentration of radioactivity (Spleen, 168 h): 0.694 μg equiv./g | Concentration of radioactivity (Testis, 2 h): 1.647 μg equiv./g | Concentration of radioactivity (Testis, 24 h): 0.436 μg equiv./g | Concentration of radioactivity (Testis, 168 h): 0.078 μg equiv./g | Concentration of radioactivity (Thymus, 2 h): 2.373 μg equiv./g | Concentration of radioactivity (Thymus, 24 h): 0.556 μg equiv./g | Concentration of radioactivity (Thymus, 168 h): 0.105 μg equiv./g | Concentration of radioactivity (Thyroid, 2 h): 2.751 μg equiv./g | Concentration of radioactivity (Thyroid, 24 h): 0.791 μg equiv./g | Concentration of radioactivity (Thyroid, 168 h): 0.239 μg equiv./g | Concentration of radioactivity (Urinary Bladder (contents), 2 h): 47.034 μg equiv./g | Concentration of radioactivity (Urinary Bladder (contents), 24 h): 21.237 μg equiv./g | Concentration of radioactivity (Urinary Bladder (contents), 168 h): 0.121 μg equiv./g | Concentration of radioactivity (Urinary Bladder, 2 h): 35.978 μg equiv./g | Concentration of radioactivity (Urinary Bladder, 24 h): 2.264 μg equiv./g | Concentration of radioactivity (Urinary Bladder, 168 h): 0.132 μg equiv./g | Radioactivity in brain and spinal cord relative to plasma concentration (oral administration): ~5% | Small intestinal tissue to plasma ratio (T/P) (oral administration, 15 mg/kg): 428 | Residual concentration in small intestine at 168 h (pigmented LE rats, 15 mg/kg PO): 5.9 μg equiv/g

From patent publication US20170368082A1, “FORMULATIONS OF BRINCIDOFOVIR” (priority 2016, published 2017)
